# Columns and labels:
# Test in all cases: Nanosyn kinase profiling
# Format in all cases: biochemical
# Conditions in all cases: read-out: Percentage inhibition; for inhibition at 0.1 µM: 0.1 µM inhibitor; for inhibition at 1 µM: 1 µM inhibitor
# ZAP70 = biological target: T1, ZAP70 (Homo sapiens, UniProt P43403)
# T1 construct: purchased Nanosyn (enzymatic panel); SGC in-house recombinant human kinases (DSF panel); Invitrogen (ALK1-6)
# T1 sequence (P43403 1-619): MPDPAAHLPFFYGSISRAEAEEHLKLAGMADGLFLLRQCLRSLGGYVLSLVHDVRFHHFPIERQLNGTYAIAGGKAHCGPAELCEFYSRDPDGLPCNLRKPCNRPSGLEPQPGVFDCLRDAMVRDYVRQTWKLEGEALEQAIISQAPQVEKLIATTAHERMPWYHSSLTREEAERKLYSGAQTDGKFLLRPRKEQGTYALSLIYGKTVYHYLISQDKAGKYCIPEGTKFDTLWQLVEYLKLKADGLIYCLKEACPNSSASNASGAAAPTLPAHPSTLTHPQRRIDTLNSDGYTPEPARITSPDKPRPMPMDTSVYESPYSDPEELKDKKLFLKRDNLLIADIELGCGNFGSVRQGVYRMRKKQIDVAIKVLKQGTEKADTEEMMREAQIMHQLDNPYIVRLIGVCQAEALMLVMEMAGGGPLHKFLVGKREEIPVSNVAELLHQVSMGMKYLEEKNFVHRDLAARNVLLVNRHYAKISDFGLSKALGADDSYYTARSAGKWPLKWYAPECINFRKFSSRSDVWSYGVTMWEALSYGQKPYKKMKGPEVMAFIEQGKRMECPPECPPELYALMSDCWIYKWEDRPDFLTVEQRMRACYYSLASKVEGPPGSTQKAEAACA
# Method in brief: (§1)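 Percent inhibition of each kinase was measured with the inhibitor at 0.1 µM and at 1 µM, as part of a 200-kinase human selectivity panel.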
# TEC = biological target: T2, TEC (Homo sapiens, UniProt P42680)
# T2 construct: purchased Nanosyn (enzymatic panel); SGC in-house recombinant human kinases (DSF panel); Invitrogen (ALK1-6)
# T2 sequence (P42680 1-631): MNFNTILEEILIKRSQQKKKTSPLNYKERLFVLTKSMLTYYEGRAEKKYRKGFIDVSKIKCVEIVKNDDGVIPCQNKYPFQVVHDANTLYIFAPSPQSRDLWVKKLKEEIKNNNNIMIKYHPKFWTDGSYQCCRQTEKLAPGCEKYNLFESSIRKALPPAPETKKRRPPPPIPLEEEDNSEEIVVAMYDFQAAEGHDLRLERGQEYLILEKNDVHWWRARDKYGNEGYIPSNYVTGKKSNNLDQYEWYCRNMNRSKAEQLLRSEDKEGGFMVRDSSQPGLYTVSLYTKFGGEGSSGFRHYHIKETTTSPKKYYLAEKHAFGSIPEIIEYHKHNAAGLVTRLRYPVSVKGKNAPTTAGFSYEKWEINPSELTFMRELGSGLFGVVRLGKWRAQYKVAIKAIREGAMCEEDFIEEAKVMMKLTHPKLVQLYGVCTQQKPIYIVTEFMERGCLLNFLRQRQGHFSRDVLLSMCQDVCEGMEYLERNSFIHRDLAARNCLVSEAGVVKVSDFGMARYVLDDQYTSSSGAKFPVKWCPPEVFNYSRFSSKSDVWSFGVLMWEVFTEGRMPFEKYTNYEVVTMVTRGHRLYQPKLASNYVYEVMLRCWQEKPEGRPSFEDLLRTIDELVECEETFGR
# Method in brief: as §1
# CDK2/cycA = biological target: T3, CDK2/cycA (Homo sapiens, UniProt P24941)
# T3 construct: purchased Nanosyn (enzymatic panel); SGC in-house recombinant human kinases (DSF panel); Invitrogen (ALK1-6)
# Method in brief: as §1
# PIM2 = biological target: T4, PIM2 (Homo sapiens, UniProt Q9P1W9)
# T4 construct: purchased Nanosyn (enzymatic panel); SGC in-house recombinant human kinases (DSF panel); Invitrogen (ALK1-6)
# T4 sequence (Q9P1W9 whole entry): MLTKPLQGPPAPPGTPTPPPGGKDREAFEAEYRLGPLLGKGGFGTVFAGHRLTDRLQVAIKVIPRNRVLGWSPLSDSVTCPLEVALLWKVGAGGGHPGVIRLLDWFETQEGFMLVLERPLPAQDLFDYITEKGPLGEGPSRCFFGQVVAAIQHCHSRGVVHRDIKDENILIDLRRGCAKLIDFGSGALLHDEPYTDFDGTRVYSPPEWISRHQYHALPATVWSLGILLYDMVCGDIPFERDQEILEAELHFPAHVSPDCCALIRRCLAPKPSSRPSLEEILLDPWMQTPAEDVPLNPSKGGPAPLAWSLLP
# Method in brief: as §1
# IKK-α = biological target: T5, IKK-α (Homo sapiens, UniProt O15111)
# T5 construct: purchased Nanosyn (enzymatic panel); SGC in-house recombinant human kinases (DSF panel); Invitrogen (ALK1-6)
# T5 sequence (O15111 1-745): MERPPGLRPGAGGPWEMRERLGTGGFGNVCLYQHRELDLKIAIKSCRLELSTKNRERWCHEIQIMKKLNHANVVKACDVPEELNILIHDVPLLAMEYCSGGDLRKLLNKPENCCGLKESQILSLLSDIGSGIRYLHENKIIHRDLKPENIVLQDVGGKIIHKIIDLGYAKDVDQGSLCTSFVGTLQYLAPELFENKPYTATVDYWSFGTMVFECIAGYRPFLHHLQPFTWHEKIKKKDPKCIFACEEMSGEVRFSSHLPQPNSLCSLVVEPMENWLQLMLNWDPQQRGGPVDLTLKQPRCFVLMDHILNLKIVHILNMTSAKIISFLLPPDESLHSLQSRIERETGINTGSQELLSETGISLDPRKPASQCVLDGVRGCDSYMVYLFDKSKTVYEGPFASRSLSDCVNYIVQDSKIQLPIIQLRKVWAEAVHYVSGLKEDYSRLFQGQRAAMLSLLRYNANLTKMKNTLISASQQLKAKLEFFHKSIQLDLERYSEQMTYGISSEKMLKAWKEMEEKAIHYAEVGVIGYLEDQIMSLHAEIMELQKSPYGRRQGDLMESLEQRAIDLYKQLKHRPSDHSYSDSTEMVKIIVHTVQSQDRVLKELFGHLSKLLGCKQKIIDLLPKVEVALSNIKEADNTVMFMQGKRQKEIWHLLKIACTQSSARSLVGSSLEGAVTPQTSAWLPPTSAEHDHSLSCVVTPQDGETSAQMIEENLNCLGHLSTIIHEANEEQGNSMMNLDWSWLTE
# Method in brief: as §1
# TSSK1 = biological target: T6, TSSK1 (Homo sapiens, UniProt Q9BXA7)
# T6 construct: purchased Nanosyn (enzymatic panel); SGC in-house recombinant human kinases (DSF panel); Invitrogen (ALK1-6)
# T6 sequence (Q9BXA7 1-367): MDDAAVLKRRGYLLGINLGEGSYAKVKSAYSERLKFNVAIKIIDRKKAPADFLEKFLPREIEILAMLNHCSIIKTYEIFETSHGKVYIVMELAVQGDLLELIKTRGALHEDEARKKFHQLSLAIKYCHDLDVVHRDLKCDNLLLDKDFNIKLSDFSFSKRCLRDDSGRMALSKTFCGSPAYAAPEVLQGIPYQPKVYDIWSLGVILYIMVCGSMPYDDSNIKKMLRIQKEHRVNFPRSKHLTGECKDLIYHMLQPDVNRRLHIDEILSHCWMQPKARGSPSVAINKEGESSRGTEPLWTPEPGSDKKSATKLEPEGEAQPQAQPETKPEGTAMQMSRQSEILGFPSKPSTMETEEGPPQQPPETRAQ
# Method in brief: as §1
# SYK = biological target: T7, SYK (Homo sapiens, UniProt P43405)
# T7 construct: purchased Nanosyn (enzymatic panel); SGC in-house recombinant human kinases (DSF panel); Invitrogen (ALK1-6)
# Method in brief: as §1
# BTK = biological target: T8, BTK (Homo sapiens, UniProt Q06187)
# T8 construct: purchased Nanosyn (enzymatic panel); SGC in-house recombinant human kinases (DSF panel); Invitrogen (ALK1-6)
# T8 sequence (Q06187 whole entry): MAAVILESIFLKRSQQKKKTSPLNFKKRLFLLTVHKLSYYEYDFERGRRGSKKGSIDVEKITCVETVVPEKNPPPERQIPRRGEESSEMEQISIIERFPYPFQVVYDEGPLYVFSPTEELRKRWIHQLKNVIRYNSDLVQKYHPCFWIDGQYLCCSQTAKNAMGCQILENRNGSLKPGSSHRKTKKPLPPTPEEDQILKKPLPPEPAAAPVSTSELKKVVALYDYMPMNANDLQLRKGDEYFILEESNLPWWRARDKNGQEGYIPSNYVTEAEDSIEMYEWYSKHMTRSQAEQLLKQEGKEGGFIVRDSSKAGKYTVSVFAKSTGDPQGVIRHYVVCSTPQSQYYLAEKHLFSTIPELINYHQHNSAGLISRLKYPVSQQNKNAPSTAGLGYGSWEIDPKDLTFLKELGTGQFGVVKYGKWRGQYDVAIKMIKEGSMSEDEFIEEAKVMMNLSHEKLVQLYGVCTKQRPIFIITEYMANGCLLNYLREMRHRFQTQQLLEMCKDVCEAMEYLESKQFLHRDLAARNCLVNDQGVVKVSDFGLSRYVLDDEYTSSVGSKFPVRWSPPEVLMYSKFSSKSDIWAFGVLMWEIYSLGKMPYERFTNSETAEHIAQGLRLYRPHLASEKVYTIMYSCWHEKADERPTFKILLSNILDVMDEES
# Method in brief: as §1
SMILES,inhibition at 0.1 µM (ZAP70),inhibition at 1 µM (ZAP70),inhibition at 0.1 µM (TEC),inhibition at 1 µM (TEC),inhibition at 0.1 µM (CDK2/cycA),inhibition at 1 µM (CDK2/cycA),inhibition at 0.1 µM (PIM2),inhibition at 1 µM (PIM2),inhibition at 0.1 µM (IKK-α),inhibition at 1 µM (IKK-α),inhibition at 0.1 µM (TSSK1),inhibition at 1 µM (TSSK1),inhibition at 0.1 µM (SYK),inhibition at 1 µM (SYK),inhibition at 0.1 µM (BTK),inhibition at 1 µM (BTK)
"COc1cc(-c2cc(-c3cccc(O)c3)cnc2N)cc(OC)c1OC [K02288, 3-[6-amino-5-(3,4,5-trimethoxy-phenyl)-pyridin-3-yl]-phenol]",-2%,1%,0.3%,14%,0%,0%,0.9%,2.3%,7.4%,2.7%,-1%,-2%,0%,-2%,0.5%,6.6%
c1ccc2c(-c3cnn4cc(-c5ccc(N6CCNCC6)cc5)cnc34)ccnc2c1 [LDN-193189],4.7%,1%,1.8%,5.5%,1.2%,4.1%,0%,0%,3%,-2%,3.5%,5.2%,-1%,-12%,0.5%,1.8%
